Measured values: patent publication EP0821003B1, “PEPTIDES AND REMEDY FOR AUTOIMMUNE DISEASES COMPRISING THE SAME” (Aventis Pharma Ltd., priority 1995, dated 2003)
Non-standard residues stand in square brackets, D forms with d. Residues, ends and D or L forms follow the SMILES beside them. No end group written: not given here.

Columns and labels:
[1] = tested on: anti-KLH antibody production; assay: Suppressive effect on anti-KLH antibody production in mice (ELISA of serum IgG); assay type: in vivo, Balb/c mice; conditions: for Anti-KLH IgG antibody titer (unit ± SD): Example 3, 100 µg subcutaneously day 5 and day 3 prior to KLH, blood day 21 after antigen; for Anti-KLH IgG antibody titer (unit ± SD) / Anti-KLH antibody titer (unit ± SD): 8 mice per group; for antibody production (anti-KLH) / Anti-KLH antibody titer (unit ± SD): Example 7; for Anti-KLH antibody titer (unit ± SD): in a similar manner to Example 3
Protocol: Day 5 and day 3 prior to the antigen administration, 100 µg of each Peptide (I) to (VI) of the present invention composed of 9 amino acid residues indicated by Sequence ID No. 1 in the Sequence Listing were dissolved in 200 µl of physiological saline. The resulting solution was subcutaneously administered to 9-week-old Balb/c mice. As a control, a non-administered group to which the same amount of physiological saline was administered was employed. In 200 µl of physiological saline, 25 µg of KLH were dissolved as an antigen and the resulting solution was subcutaneously administered. The blood was collected on day 21 after antigen administration and an antibody titer was measured by the method which is described below.
KLH was diluted to 10 µg/ml with a phosphate buffered physiological saline (PBS). Fifty µl portions of the resulting solution were poured into a 96-well microplate and the plate was allowed to stand at 4iC overnight. After the microplate was washed three times with 0.05% Tween-20-containing PBS (T-PBS), 200 µl portions of 0.5% casein tris-buffered physiological saline (casein TBS) were poured into wells, respectively. […] The microplate was washed three times with T-PBS and 50 µl portions of the mouse serum diluted to 1/200 with casein TBS were poured into the wells, followed by reaction for one hour (primary reaction).
The resulting microplate was washed three times with T-PBS, to which 50 µl portions of an anti-mouse IgG-peroxidase-labeled antibody (TAGO Co.) diluted to 1/4000 with casein TBS were poured. The reaction was effected at room temperature for one hour (secondary reaction). After the completion of the secondary reaction, the plate was washed three times again. Fifty µl portions of a substrate liquid/chromogen (chromogen substrate: Behringwerke AG) were poured into wells, respectively, followed by reaction at room temperature for 30 minutes. After the completion of the reaction, 0.5N diluted sulfuric acid was added to terminate the reaction and an absorbance at 450 nm was measured by a colorimeter ("BEP-II", product of Behringwerke AG/Germany) with the absorbance at 650 nm as a control.
In a similar manner to Example 3, suppressive effects of Peptides (I), (VII) to (XV) on anti-KLH antibody production in mice were studied.

[2] = tested on: anti-OVA antibody production; assay: Suppressive effect on anti-OVA antibody production in mice (ELISA of serum IgG); assay type: in vivo, Balb/c mice; design: Anti OVA Ig-G antibody titer (unit): dose or concentration left out as unconfirmed; conditions: for Anti-OVA antibody titer: in a similar manner to Example 2
Protocol: Day 5 and day 3 prior to the antigen administration, Peptide (I) composed of 9 amino acid residues as indicated by Sequence ID No. 1 in the Sequence Listing of the present invention and a synthetic peptide 15 composed of 15 amino acid residues derived from clone 17.2 TcR, which peptide had been reported by Mohapatra et al. as described above, 100 g each, were dissolved in 200 of physiological saline and each solution thus obtained was subcutaneously administered to 9-week-old Balb/c mice. As a control, a non-administered group to which the same amount of physiological saline was administered was employed. In 200 I of physiological saline, 100 g of OVA (Sigma Chemical Co.) were dissolved, followed by subcutaneous administration. Blood was collected on day 21 after antigen administration and an antibody titer was measured by the method described below.
OVA was diluted to 10 µg/ml with phosphate buffered saline (PBS) and 50 I portions of the solution were poured in a 96-well microplate. The coating operation was conducted overnight at […]. The microplate was then washed three times with a 0.05% Tween-20-containing PBS (T-PBS). 200 portions of 0.5% casein-containing tris buffered physiological saline (casein TBS) were poured in each well and the microplate was allowed to stand at room temperature for one hour. The microplate was then washed three times with T-PBS. After the serum of the blood collected from the mice was diluted to 1/200 with 0.5% casein TBS, 50 I portions of the diluted serum were poured in each well and the plate was allowed to stand for one hour (primary reaction).
After the completion of the primary reaction, the microplate was washed three times with T-PBS. Fifty I portions of anti-mouse IgG-peroxidase-labeled antibody (TAGO Co.) diluted to 1/4000 with 0.5% casein TBS were poured in each well, followed by reaction at room temperature for one hour (secondary reaction). After the completion of the secondary reaction, the plate was washed three times again. Fifty I portions of a substrate liquid/chromogen (chromogen substrate: Behringwerke AG) were poured in each well, followed by reaction at room temperature for 30 minutes. After the completion of the reaction, 0.5N diluted sulfuric acid was added to terminate the reaction and an absorbance at 450 nm was measured by a colorimeter ("BEP-II", product of Behringwerke AG/Germany) with an absorbance at 650 nm as a control.
In a similar manner to Example 2, the suppressive effects of Peptides (I), (VII) to (XIV) on the anti-OVA antibody production in mice were measured.

[3] = tested on: EAE model mice; assay: Onset suppressive effect on EAE model mice (clinical score); assay type: in vivo, SJL mouse; design: key to average score ± SD: EAE onset score per Pettinelli et al. 1982 criteria; conditions: for average score ± SD: score 0-6
Protocol: As an antigen, guinea pig spinal chord homogenate was employed. The guinea pig spinal chord homogenate was diluted with PBS to be 6.6 mg/ml, followed by the addition of the equivalent amount of Freund ? s complete adjuvant. The resulting mixture was formed into an emulsion by an ultrasonic sonicator. The resulting emulsion was administered to two areas under the lateral skin in a total amount of 300 µl. Day 5 and day 3 prior to antigen administration, and 5 days a week for 4 weeks after antigen administration, the solution of Peptide (I) dissolved in 100 µl physiological saline was subcutaneously administered to a 14-week old SJL mouse. Incidentally, in order to increase an onset ratio, […] of pertussis toxin (PTX) were intravenously administered as an enhancer on the day of antigen administration and two days after antigen administration. Observation of the onset was performed from day 14 to day 28 after primary antigen administration. The onset was scored based on the following standard criteria [Pettinelli, C. B., Fritz, D. E., and McFarlin, D. E. J. Immunl., 129, No. 3, 1024-1028 (1982)]. In Table 3, values of average score + standard deviation (SD) in each administration group on day 22, day 25 and day 28 after primary antigen administration are shown.

[4] = compared with Peptide (I) administered group
[5] = Example 8, compared with Peptide (I) administered group
[6] = compared with the non-administered group and Peptide (I) administered group
[7] = Example 8, compared with the non-administered group and Peptide (I) administered group

Compound | Anti-KLH IgG antibody titer (unit ± SD) [1] | antibody production (anti-KLH) [1, 4] | Anti-KLH antibody titer (unit ± SD) [1] | Anti-OVA antibody titer ([2]; Example 8, 8 mice per group) | also measured
CC(C)C[C@@H](NC(=O)[C@@H](CCCCN)NC(=O)[C@@H](C)N)C(=O)N[C@@H](C(=O)N[C@H](Cc1ccccc1)C(=O)NCC(=O)N[C@H](CCCCN)C(=O)NCC(=O)N[C@@H](C(=O)O)[C@H](C)O)[C@H](C)O [Peptide (II)] (H-[dA][dK][dL][dT][dF]G[dK]G[dT]-OH) | 48.4 ± 13.1 unit |  |  |  | 
CC(=O)N[C@H](C)C(=O)N[C@H](CCCCN)C(=O)N[C@H](CC(C)C)C(=O)N[C@@H](C(=O)N[C@H](Cc1ccccc1)C(=O)NCC(=O)N[C@H](CCCCN)C(=O)NCC(=O)N[C@@H](C(=O)O)[C@H](C)O)[C@H](C)O [Peptide (V)] (Ac-[dA][dK][dL][dT][dF]G[dK]G[dT]-OH) | 37.7 ± 17.7 unit |  |  |  | 
CC(=O)N[C@H](C)C(=O)N[C@H](CCCCN)C(=O)N[C@H](CC(C)C)C(=O)N[C@@H](C(=O)N[C@H](Cc1ccccc1)C(=O)NCC(=O)N[C@H](CCCCN)C(=O)NCC(=O)N[C@@H](C(N)=O)[C@H](C)O)[C@H](C)O [Peptide (VI)] (Ac-[dA][dK][dL][dT][dF]G[dK]G[dT]-NH2) | 29.5 ± 19.5 unit |  |  |  | 
AALTFGKG [Peptide (VIII)] |  | not suppressed | 44.9 ± 18.1 unit | 65.3 ± 34.7 | 
AKATFGKG [Peptide (XIII)] |  | not suppressed | 68.9 ± 25.1 unit | 193.5 ± 155.9 | antibody production (anti-OVA) [2, 5]: not suppressed
AKLAFGKG [Peptide (IX)] |  |  | 33.9 ± 13.7 unit | 10.4 ± 6.3 | antibody production (anti-KLH) [1, 6]: significantly suppressed; antibody production (anti-OVA) [2, 7]: significantly suppressed
AKLTAGKG [Peptide (XIV)] |  | not suppressed | 59.9 ± 32.8 unit | 90.9 ± 89.5 | antibody production (anti-OVA) [2, 5]: not suppressed
AKLTFAKG [Peptide (X)] |  |  | 26.5 ± 22.0 unit | 49.8 ± 28.4 | antibody production (anti-KLH) [1, 6]: significantly suppressed
AKLTFGAG [Peptide (XI)] |  |  | 19.9 ± 15.9 unit | 15.3 ± 14.3 | antibody production (anti-KLH) [1, 6]: significantly suppressed; antibody production (anti-OVA) [2, 7]: significantly suppressed
AKLTFGKA [Peptide (XII)] |  | not suppressed | 49.5 ± 40.1 unit | 50.9 ± 26.7 | 
AKLTFGKG [Peptide (VII)] |  |  | 25.9 ± 15.4 unit | 20.9 ± 21.4 | antibody production (anti-KLH) [1, 6]: significantly suppressed; antibody production (anti-OVA) [2, 7]: significantly suppressed
AKLTFGKGT [Peptide (I)] | 78.7 ± 28.3 unit |  | 39.5 ± 16.1 unit | 23.8 ± 12.4 | average score ± SD ([3]; 1 µg/body subcutaneously, Day 22 after primary antigen administration): 1.6 ± 1.8; average score ± SD ([3]; 1 µg/body subcutaneously, Day 25 after primary antigen administration): 0.9 ± 1.1; average score ± SD ([3]; 1 µg/body subcutaneously, Day 28 after primary antigen administration): 1.8 ± 1.9; onset of EAE ([3]; 5 µg/body group compared with the physiological saline group): suppressed on day 25 and day 28 with a significant difference of 5%; average score ± SD ([3]; 5 µg/body subcutaneously, Day 22 after primary antigen administration): 0.4 ± 0.7; average score ± SD ([3]; 5 µg/body subcutaneously, Day 25 after primary antigen administration): 1.0 ± 1.1; average score ± SD ([3]; 5 µg/body subcutaneously, Day 28 after primary antigen administration): 0.7 ± 0.8; onset of EAE ([3]; 25 µg/body group compared with the physiological saline group, from day 22): suppressed from day 22 with a significant difference of 5%; onset of EAE ([3]; 25 µg/body group compared with the physiological saline group, from day 25): suppressed with a significant difference of 1%; average score ± SD ([3]; 25 µg/body subcutaneously, Day 22 after primary antigen administration): 0.3 ± 0.4; average score ± SD ([3]; 25 µg/body subcutaneously, Day 25 after primary antigen administration): 0.1 ± 0.3; average score ± SD ([3]; 25 µg/body subcutaneously, Day 28 after primary antigen administration): 0.0 ± 0.0; onset of EAE ([3]; administration of Peptide (I), overall statement): suppressed; antibody production (anti-OVA) ([2]; Example 2, compared with the non-administered group): significantly suppressed; Anti OVA Ig-G antibody titer (unit) ([2]; Example 2, subcutaneously day 5 and day 3 prior to OVA, blood day 21 after antigen, 8 mice per group, mean ± spread): 8.8 ± 10.8 unit
Ac-AKLTFGKGT [Peptide (III)] | 50.1 ± 25.8 unit |  |  |  | 
KLTFGKG [Peptide (XV)] |  | not suppressed | 86.4 ± 27.8 unit |  | 
